Measured values as given in ChEMBL document CHEMBL1135056, “Differential inhibition of polymerase and strand-transfer activities of HIV-1 reverse transcriptase” (Bioorg Med Chem Lett, 2002).
pIC50: −log10 of the molar value.

What was measured:
[1] = target: T1, Human immunodeficiency virus type 1 reverse transcriptase (Human immunodeficiency virus 1, UniProt Q72547); test: Inhibition of HIV-1 reverse transcriptase polymerization using wild type HIV-1-RT enzyme
[2] = target: T1, Human immunodeficiency virus type 1 reverse transcriptase; test: Tested for its ability to inhibit HIV-1 reverse transcriptase strand transfer using wild type HIV-1-RT enzyme
[3] = target: T1, Human immunodeficiency virus type 1 reverse transcriptase; test: Tested for its ability to inhibit HIV-1 reverse transcriptase polymerization using A17 double mutant HIV-1-RT enzyme
[4] = target: T1, Human immunodeficiency virus type 1 reverse transcriptase; test: Tested for its ability to inhibit HIV-1 reverse transcriptase strand transfer using A17 double mutant HIV-1-RT enzyme

Row | SMILES | pIC50 [1] | pIC50 [2] | pIC50 [3] | pIC50 [4]
1 | O=C(OCCc1ccc(O)cc1)c1cc(O)c(O)c(O)c1 | 5.10 | 5.35 | – | –
2 | O=C(OC1COc2ccccc2C1)c1cc(O)c(O)c(O)c1 (centres undefined) | < 4.00 | 5.21 | < 4.00 | 5.59
3 | O=C(OCCc1ccccc1)c1cc(O)c(O)c(O)c1 | 4.14 | 5.16 | – | –
4 | O=C(OC1COc2cccc(O)c2C1)c1cc(O)c(O)c(O)c1 (centres undefined) | 4.34 | 5.06 | 4.19 | –
5 | O=C(OC1COc2cc(O)cc(O)c2C1)c1cc(O)c(O)c(O)c1 (centres undefined) | 5.42 | 5.21 | – | 5.26
6 | O=C(OCCc1ccc(O)c(O)c1)c1cc(O)c(O)c(O)c1 | 4.97 | 6.22 | 5.20 | 4.98
7 | COc1cc(OC)c2c(c1)OCC(OC(=O)c1cc(O)c(O)c(O)c1)C2 (centres undefined) | 4.14 | 6.05 | < 4.00 | 5.16
8 | O=C(OC1COc2cc(O)cc(O)c2C1)c1cc(O)cc(O)c1 (centres undefined) | 4.02 | – | – | –
9 | O=C(OC1COc2cc(O)ccc2C1)c1cc(O)c(O)c(O)c1 (centres undefined) | 4.44 | 5.12 | 4.51 | –
10 | O=C(OC1COc2cc(O)cc(O)c2C1)c1ccc(O)c(O)c1 (centres undefined) | 4.43 | < 4.00 | < 4.00 | < 4.00
11 | O=C(OC1COc2cc(O)cc(O)c2C1)c1ccccc1 (centres undefined) | < 4.00 | < 4.00 | < 4.00 | < 4.00
